Patent publication EP4273147A1, “SUBSTITUTED SPIROLACTAMS, SALTS THEREOF AND THEIR USE AS HERBICIDALLY ACTIVE SUBSTANCES” (Bayer Aktiengesellschaft, priority 2022, dated 2023)

How the values were obtained:
ZEAMX [1] = assay: Pre-emergence effects on crop plants (Table D1); type: in vivo, Zea mays; conditions: crop plant; application rate 320 g/ha; visual grading after ca. 3 weeks
VERPE [2] = assay: Herbicidal pre-emergence action, section C (Table C11); type: in vivo, Veronica persica; conditions: application rate 80 g/ha; visual grading after ca. 3 weeks
TRZAS [3] = assay: Pre-emergence effects on crop plants (Table D2); type: in vivo, Triticum aestivum; conditions: crop plant; application rate 80 g/ha; visual grading after ca. 3 weeks
LOLRI [4] = assay: Herbicidal pre-emergence action (Table A3); type: in vivo, Lolium rigidum; conditions: application rate 320 g/ha; visual grading after ca. 3 weeks
Summary of the method: (§1)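 Seeds covered with soil after sowing in sandy loam; every pot carried one monocotyledonous and one dicotyledonous weed species as a double sowing.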

GLXMA = assay: Pre-emergence effects on crop plants (Table D4); type: in vivo, Glycine max; conditions: crop plant; application rate 320 g/ha; visual grading after ca. 3 weeks
AMARE [5] = assay: Herbicidal post-emergence action (Table B11); type: in vivo, Amaranthus retroflexus; conditions: application rate 1280 g/ha
Summary of the method: (§2)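 Each pot held sandy loam sown with a single mono- or dicot weed species, grown under controlled greenhouse conditions. Test plants were sprayed at the one-leaf stage, and after about 3 weeks of further growth the percentage activity relative to untreated plants was rated visually.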

ORYZA = assay: Post-emergence effects on crop plants (Table F3); type: in vivo, Oryza sativa; conditions: application rate 320 g/ha, crop plant ORYZA
From the text: (§3) 2 to 3 weeks after sowing, the test plants were sprayed in the single-leaf stage.

TRZAS [6] = assay: Post-emergence effects on crop plants (Table F2); type: in vivo, Triticum aestivum; conditions: application rate 320 g/ha, crop plant TRZAS
From the text: as §3

DIGSA = assay: Herbicidal pre-emergence action, section C (Table C5); type: in vivo, Digitaria sanguinalis; conditions: application rate 80 g/ha; visual grading after ca. 3 weeks
VIOTR [7] = assay: Herbicidal pre-emergence action, section C (Table C12); type: in vivo, Viola tricolor; conditions: application rate 320 g/ha; visual grading after ca. 3 weeks
From the text: (§4) Seeds of mono- and dicotyledonous weed plants and crop plants were sown, in plastic or organic planting pots, in sandy loam and covered with soil. The compounds according to the invention, formulated in the form of wettable powders (WP) or as emulsifiable concentrates (EC), were applied to the surface of the covering soil as aqueous suspension or emulsion, with the addition of 0.5% of an additive, at an application rate of 600 1 of water/ha (converted). Following treatment, the pots were placed in a greenhouse and kept under optimum growth conditions for the test plants.

STEME [8] = assay: Herbicidal post-emergence action (Table B9); type: in vivo, Stellaria media; conditions: application rate 1280 g/ha
Protocol: Seeds of mono- and dicotyledonous weed plants were placed in plastic pots in sandy loam soil (doubly sown with in each case one species of mono- or dicotyledonous weed plants per pot), covered with soil and cultivated in a greenhouse under controlled growth conditions. 2 to 3 weeks after sowing, the test plants were treated at the one-leaf stage. […] After the test plants had been kept in the greenhouse under optimum growth conditions for about 3 weeks, the activity of the preparations was rated visually in comparison to untreated controls. For example, 100% activity = the plants have died, 0% activity = like control plants.

ALOMY [9] = assay: Herbicidal pre-emergence action, section C (Table C2); type: in vivo, Alopecurus myosuroides; conditions: application rate 80 g/ha; visual grading after ca. 3 weeks
ECHCG [10] = assay: Herbicidal pre-emergence action (Table A2); type: in vivo, Echinochloa crus-galli; conditions: application rate 1280 g/ha; visual grading after ca. 3 weeks
Summary of the method: as §1

LOLRI [11] = assay: Herbicidal pre-emergence action, section C (Table C7); type: in vivo, Lolium rigidum; conditions: application rate 320 g/ha; visual grading after ca. 3 weeks
From the text: as §4

SETVI [12] = assay: Herbicidal pre-emergence action, section C (Table C10); type: in vivo, Setaria viridis; conditions: application rate 320 g/ha; visual grading after ca. 3 weeks
MATIN [13] = assay: Herbicidal pre-emergence action (Table A4); type: in vivo, Matricaria inodora; conditions: application rate 1280 g/ha; visual grading after ca. 3 weeks
Summary of the method: as §1

SETVI [14] = assay: Herbicidal pre-emergence action (Table A5); type: in vivo, Setaria viridis; conditions: application rate 320 g/ha; visual grading after ca. 3 weeks
Summary of the method: as §1

ABUTH = assay: Herbicidal post-emergence action (Table B1); type: in vivo, Abutilon theophrasti; conditions: application rate 1280 g/ha; treated at one-leaf stage; rated visually after about 3 weeks vs untreated controls (100% = plants have died, 0% = like control plants)
Summary of the method: as §2

STEME [15] = assay: Herbicidal pre-emergence action (Table A6); type: in vivo, Stellaria media; conditions: application rate 320 g/ha; visual grading after ca. 3 weeks
Summary of the method: as §1

MATIN [16] = assay: Herbicidal post-emergence action (Table B6); type: in vivo, Matricaria inodora; conditions: application rate 320 g/ha; rated visually after about 3 weeks
Summary of the method: as §2

VERPE [17] = assay: Herbicidal post-emergence action, section E (Table E9); type: in vivo, Veronica persica; conditions: application rate 320 g/ha; assessed visually after ca. 3 weeks
From the text: as §3

POAAN [18] = assay: Herbicidal post-emergence action (Table B7); type: in vivo, Poa annua; conditions: application rate 320 g/ha
Summary of the method: as §2

ECHCG [19] = assay: Herbicidal post-emergence action, section E (Table E5); type: in vivo, Echinochloa crus-galli; conditions: application rate 320 g/ha; assessed visually after ca. 3 weeks
From the text: as §3

ALOMY [20] = assay: Herbicidal post-emergence action, section E (Table E2); type: in vivo, Alopecurus myosuroides; conditions: application rate 320 g/ha; assessed visually after ca. 3 weeks
From the text: as §3

POAAN [21] = assay: Herbicidal pre-emergence action (Table A7); type: in vivo, Poa annua; conditions: application rate 320 g/ha; visual grading after ca. 3 weeks
Summary of the method: as §1

AMARE [22] = assay: Herbicidal pre-emergence action (Table A8); type: in vivo, Amaranthus retroflexus; conditions: application rate 1280 g/ha; visual grading after ca. 3 weeks vs untreated controls (100% = plants have died off, 0% = as control plants)
Summary of the method: as §1

ECHCG [23] = assay: Herbicidal pre-emergence action, section C (Table C6); type: in vivo, Echinochloa crus-galli; conditions: application rate 80 g/ha; visual grading after ca. 3 weeks
VIOTR [24] = assay: Herbicidal post-emergence action, section E (Table E10); type: in vivo, Viola tricolor; conditions: application rate 320 g/ha; assessed visually after ca. 3 weeks
From the text: as §3

BRSNW [25] = assay: Pre-emergence effects on crop plants (Table D5); type: in vivo, Brassica napus; conditions: crop plant; application rate 80 g/ha; visual grading after ca. 3 weeks
BRSNW [26] = assay: Post-emergence effects on crop plants (Table F5); type: in vivo, Brassica napus; conditions: application rate 320 g/ha, crop plant BRSNW
From the text: as §3

ZEAMX [27] = assay: Post-emergence effects on crop plants (Table F1); type: in vivo, Zea mays; conditions: application rate 320 g/ha, crop plant ZEAMX
From the text: as §3

## O=C1N(Cc2c(F)ccc(F)c2F)CCCC12CCCN(Cc1c(F)ccc(F)c1F)C2=O (racemic) [I-013]
ZEAMX [1]
  pre-emergence activity against ZEAMX: 10%
VERPE [2]
  pre-emergence activity against VERPE: 90%
TRZAS [3]
  pre-emergence activity against TRZAS: 20%
LOLRI [4]
  pre-emergence activity against LOLRI: 100%
GLXMA
  pre-emergence activity against GLXMA: 0%
AMARE [5]
  post-emergence activity against AMARE: 90%
ORYZA
  post-emergence activity against ORYZA: 0%
TRZAS [6]
  post-emergence activity against TRZAS: 0%
DIGSA
  pre-emergence activity against DIGSA: 100%
VIOTR [7]
  pre-emergence activity against VIOTR: 80%
STEME [8]
  post-emergence activity against STEME: 90%
ALOMY [9]
  pre-emergence activity against ALOMY: 80%
ECHCG [10]
  pre-emergence activity against ECHCG: 100%
LOLRI [11]
  pre-emergence activity against LOLRI: 90%
SETVI [12]
  pre-emergence activity against SETVI: 90%
MATIN [13]
  pre-emergence activity against MATIN: 90%
SETVI [14]
  pre-emergence activity against SETVI: 100%
ABUTH
  post-emergence activity against ABUTH: 90%
STEME [15]
  pre-emergence activity against STEME: 100%
MATIN [16]
  post-emergence activity against MATIN: 90%
VERPE [17]
  post-emergence activity against VERPE: 80%
POAAN [18]
  post-emergence activity against POAAN: 90%
ECHCG [19]
  post-emergence activity against ECHCG: 80%
ALOMY [20]
  post-emergence activity against ALOMY: 80%
POAAN [21]
  pre-emergence activity against POAAN: 100%
AMARE [22]
  pre-emergence activity against AMARE: 90%
ECHCG [23]
  pre-emergence activity against ECHCG: 100%
VIOTR [24]
  post-emergence activity against VIOTR: 90%
BRSNW [25]
  pre-emergence activity against BRSNW: 10%
BRSNW [26]
  post-emergence activity against BRSNW: 0%
ZEAMX [27]
  post-emergence activity against ZEAMX: 10%
